{"source": "patent US20240122853A1", "about": "“COMPOSITION FOR PENETRATING BLOOD-BRAIN BARRIER, CONTAINING SONOSENSITIVE LIPOSOMES AS ACTIVE INGREDIENTS” (IMGT CO, LTD., priority 2021, published 2024)", "test": "Evans blue penetration after blood-brain barrier opening by ultrasound and microbubbles", "format": "in vivo, BALB/c nude mice", "procedure": "To derive the optimal ultrasound conditions for opening the blood-brain barrier (BBB), the degree of opening of the blood-brain barrier was compared and analyzed using Evans blue. Evans blue is a very small dye with a molecular weight of 961 Da and is widely used for analyzing the degree of opening of the blood-brain barrier. The experiment was performed using normal BALB/c nude mice, and after injecting microbubbles via intravenous injection, ultrasound was emitted using a high-intensity focused ultrasound device, VIFU2000. […] The brain tissue was soaked in formamide, incubated overnight at 70° C. to extract Evans blue in the brain tissue, and the degree of opening of the blood-brain barrier was quantitatively analyzed by measuring the absorbance at wavelengths of 670 nm and 740 nm using UV-vis.\nFactors that can affect the cavitation of ultrasound and microbubbles, a mechanism that opens the blood-brain barrier, include ultrasound conditions such as the frequency, intensity, duty cycle, and ultrasound emission time of the ultrasound, and also the number of microbubbles. Therefore, to confirm the ultrasound conditions and the number of microbubbles that can open the blood-brain barrier, the degree of opening of the blood-brain barrier according to the number of microbubbles was first quantitatively analyzed. […]"}
{"smiles": "Cc1cc(-c2ccc(/N=N/c3ccc4c(S(=O)(=O)O)cc(S(=O)(=O)O)c(N)c4c3O)c(C)c2)ccc1/N=N/c1ccc2c(S(=O)(=O)O)cc(S(=O)(=O)O)c(N)c2c1O", "note": "[Evans blue]", "values": [{"measurement": "Penetration efficiency into brain depending on number of microbubbles", "setting": "1 MHz, 1 W, DC 5%, PRF 1 Hz, 60 s, 2, 5, 10 × 10^6/g microbubbles, brain 24 hours later", "value": "improving the penetration efficiency of Evans blue"}, {"measurement": "Penetration effect into brain depending on ultrasound intensity and emission time", "setting": "microbubbles 5×10^6/g, 1-3 W, duty cycle 1-10%, 60-180 s", "value": "increased proportionally"}]}
